Results: patent publication US9302999B2, “Substituted triazoles as herbicides” (E. I. DU PONT DE NEMOURS AND COMPANY, priority 2012, dated 2016)

How the values were obtained:
Type in all cases: in vivo
[1] = tested on: barnyardgrass (Echinochloa crus-galli); assay: Test A pre-/postemergence: barnyardgrass; settings: for Barnyardgrass plant response rating: Postemergence; for Plant response rating, Barnyardgrass: Preemergence
Outline: (§1)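 Whole-plant greenhouse assay in loam/sand. Preemergence directed soil spray plus simultaneous postemergence spray (one- to two-leaf stage, 2–10 cm). Rated visually ~10 days later, 0 = no effect, 100 = complete control.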

[2] = tested on: crabgrass, large (large crabgrass, Digitaria sanguinalis); assay: Test A pre-/postemergence: crabgrass, large; settings: for Crabgrass, Large plant response rating: Postemergence; for Plant response rating, Crabgrass, Large: Preemergence
Outline: as §1

[3] = tested on: foxtail, giant (giant foxtail, Setaria faberii); assay: Test A pre-/postemergence: foxtail, giant; settings: for Foxtail, Giant plant response rating: Postemergence; for Plant response rating, Foxtail, Giant: Preemergence
Outline: as §1

[4] = tested on: morningglory (Ipomoea spp.); assay: Test A pre-/postemergence: morningglory; settings: for Morningglory plant response rating: Postemergence; for Plant response rating, Morningglory: Preemergence
Outline: as §1

[5] = tested on: pigweed (Amaranthus retroflexus); assay: Test A pre-/postemergence: pigweed; settings: for Pigweed plant response rating: Postemergence; for Plant response rating, Pigweed: Preemergence
Outline: as §1

[6] = tested on: velvetleaf (Abutilon theophrasti); assay: Test A pre-/postemergence: velvetleaf; settings: for Velvetleaf plant response rating: Postemergence; for Plant response rating, Velvetleaf: Preemergence
Outline: as §1

[7] = tested on: wheat (Triticum aestivum); assay: Test A pre-/postemergence: wheat; settings: for Wheat plant response rating: Postemergence; for Plant response rating, Wheat: Preemergence
Outline: as §1

[8] = tested on: corn (Zea mays); assay: Test A pre-/postemergence: corn; settings: for Corn plant response rating: Postemergence; for Plant response rating, Corn: Preemergence
Outline: as §1

[9] = tested on: rice (Oryza sativa); assay: Test C flooded paddy test: rice; settings: scale 0 to 100 (0 no effect, 100 complete control)
Outline: (§2)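 Greenhouse plants treated at the 2-leaf stage by dosing the flood water (3 cm depth, maintained) were compared with controls after 13 to 15 days and rated 0 to 100, where 100 means complete control; a dash marks no test result.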

[10] = tested on: sedge, umbrella (small-flower umbrella sedge, Cyperus difformis); assay: Test C flooded paddy test: sedge, umbrella; settings: scale 0 to 100 (0 no effect, 100 complete control)
Outline: as §2

[11] = tested on: ducksalad (Heteranthera limosa); assay: Test C flooded paddy test: ducksalad; settings: scale 0 to 100 (0 no effect, 100 complete control)
Outline: as §2

[12] = tested on: barnyardgrass (Echinochloa crus-galli); assay: Test C flooded paddy test: barnyardgrass; settings: scale 0 to 100 (0 no effect, 100 complete control)
Outline: as §2

[13] = 125 g ai/ha, 0 to 100 scale, 0 is no effect, 100 is complete control
[14] = 500 g ai/ha, visual rating on 0 to 100 scale (0 no effect, 100 complete control), approximately ten days
[15] = 125 g ai/ha, 0 to 100 scale (0 no effect, 100 complete control)
[16] = 500 g ai/ha, 0 to 100 scale, 0 is no effect, 100 is complete control
[17] = Flood (flooded paddy test), 62 g ai/ha, visual rating after 13 to 15 days
[18] = Flood (flooded paddy test), 125 g ai/ha, visual rating after 13 to 15 days
[19] = Flood (flooded paddy test), 250 g ai/ha, visual rating after 13 to 15 days
[20] = 125 g ai/ha, 0 to 100 scale where 0 is no effect and 100 is complete control

Cc1nn(-c2ccc(F)cc2)nc1Cc1ccnc(OCC(F)(F)F)c1 [Compound 33]
0: Barnyardgrass plant response rating [1, 13] | Barnyardgrass plant response rating [1, 14] | Plant response rating, Barnyardgrass [1, 15] | Plant response rating, Barnyardgrass [1, 16] | Crabgrass, Large plant response rating [2, 13] | Plant response rating, Crabgrass, Large [2, 15] | Foxtail, Giant plant response rating [3, 13] | Plant response rating, Foxtail, Giant [3, 15] | Plant response rating, Foxtail, Giant [3, 16] | Morningglory plant response rating [4, 13] | Plant response rating, Morningglory [4, 15] | Plant response rating, Morningglory [4, 16] | Plant response rating, Pigweed [5, 15] | Plant response rating, Pigweed [5, 16] | Velvetleaf plant response rating [6, 13] | Velvetleaf plant response rating [6, 14] | Plant response rating, Velvetleaf [6, 15] | Plant response rating, Velvetleaf [6, 16] | Wheat plant response rating [7, 13] | Wheat plant response rating [7, 14] | Plant response rating, Wheat [7, 15] | Plant response rating, Wheat [7, 16] | Corn plant response rating [8, 13] | Plant response rating, Corn [8, 15] | Plant response rating, Corn [8, 16] | Plant response rating, Rice [9, 17] | Plant response rating, Rice [9, 18] | Plant response rating, Rice [9, 19] | Plant response rating, Rice ([9]; Flood, 31 g ai/ha) | Plant response rating, Sedge, Umbrella [10, 17] | Plant response rating, Sedge, Umbrella [10, 18] | Plant response rating, Sedge, Umbrella [10, 19] | Plant response rating, Sedge, Umbrella ([10]; Flood, 31 g ai/ha) | Plant response rating, Ducksalad [11, 17] | Plant response rating, Ducksalad [11, 18] | Plant response rating, Ducksalad [11, 19] | Plant response rating, Ducksalad ([11]; Flood, 31 g ai/ha) | Plant response rating, Barnyardgrass [12, 17] | Plant response rating, Barnyardgrass [12, 18] | Plant response rating, Barnyardgrass [12, 19] | Plant response rating, Barnyardgrass ([12]; Flood, 31 g ai/ha)
50: Pigweed plant response rating [5, 14]
10: Crabgrass, Large plant response rating [2, 14] | Plant response rating, Crabgrass, Large [2, 16] | Foxtail, Giant plant response rating [3, 14] | Morningglory plant response rating [4, 14] | Pigweed plant response rating [5, 13] | Corn plant response rating [8, 14]

Cc1nn(-c2ccccc2I)nc1C(=O)c1cccc(C(F)(F)F)c1 [Compound 91]
30: Pigweed plant response rating [5, 14]
10: Barnyardgrass plant response rating [1, 14] | Crabgrass, Large plant response rating [2, 14] | Foxtail, Giant plant response rating [3, 14] | Pigweed plant response rating [5, 13] | Velvetleaf plant response rating [6, 14] | Corn plant response rating [8, 13] | Corn plant response rating [8, 14]
0: Barnyardgrass plant response rating [1, 13] | Plant response rating, Barnyardgrass [1, 15] | Plant response rating, Barnyardgrass [1, 16] | Crabgrass, Large plant response rating [2, 13] | Plant response rating, Crabgrass, Large [2, 15] | Plant response rating, Crabgrass, Large [2, 16] | Foxtail, Giant plant response rating [3, 13] | Plant response rating, Foxtail, Giant [3, 20] | Plant response rating, Foxtail, Giant [3, 16] | Morningglory plant response rating [4, 13] | Morningglory plant response rating [4, 14] | Plant response rating, Morningglory [4, 20] | Plant response rating, Morningglory [4, 16] | Plant response rating, Pigweed [5, 20] | Plant response rating, Pigweed [5, 16] | Velvetleaf plant response rating [6, 13] | Plant response rating, Velvetleaf [6, 20] | Plant response rating, Velvetleaf [6, 16] | Wheat plant response rating [7, 13] | Wheat plant response rating [7, 14] | Plant response rating, Wheat [7, 20] | Plant response rating, Wheat [7, 16] | Plant response rating, Corn [8, 15] | Plant response rating, Corn [8, 16] | Plant response rating, Rice [9, 18] | Plant response rating, Rice [9, 19] | Plant response rating, Rice ([9]; Flood, 31 g ai/ha) | Plant response rating, Rice ([9]; Flood, 62 g ai/ha) | Plant response rating, Sedge, Umbrella [10, 18] | Plant response rating, Sedge, Umbrella [10, 19] | Plant response rating, Sedge, Umbrella ([10]; Flood, 31 g ai/ha) | Plant response rating, Sedge, Umbrella ([10]; Flood, 62 g ai/ha) | Plant response rating, Ducksalad [11, 18] | Plant response rating, Ducksalad [11, 19] | Plant response rating, Ducksalad ([11]; Flood, 31 g ai/ha) | Plant response rating, Ducksalad ([11]; Flood, 62 g ai/ha) | Plant response rating, Barnyardgrass [12, 18] | Plant response rating, Barnyardgrass [12, 19] | Plant response rating, Barnyardgrass ([12]; Flood, 31 g ai/ha) | Plant response rating, Barnyardgrass ([12]; Flood, 62 g ai/ha)
